{
  "source": "patent US20080009418A1",
  "about": "“Selective Inhibitors” (Alchemia LTD., priority 2004, published 2008)",
  "key": {"Human δ-opioid (DOP)": {"molecular_target": "T1, Human δ-opioid (DOP) (Homo sapiens, UniProt P41143)", "T1 construct": "purchased Perkin Elmer Biosignal", "T1 sequence (P41143 whole entry)": "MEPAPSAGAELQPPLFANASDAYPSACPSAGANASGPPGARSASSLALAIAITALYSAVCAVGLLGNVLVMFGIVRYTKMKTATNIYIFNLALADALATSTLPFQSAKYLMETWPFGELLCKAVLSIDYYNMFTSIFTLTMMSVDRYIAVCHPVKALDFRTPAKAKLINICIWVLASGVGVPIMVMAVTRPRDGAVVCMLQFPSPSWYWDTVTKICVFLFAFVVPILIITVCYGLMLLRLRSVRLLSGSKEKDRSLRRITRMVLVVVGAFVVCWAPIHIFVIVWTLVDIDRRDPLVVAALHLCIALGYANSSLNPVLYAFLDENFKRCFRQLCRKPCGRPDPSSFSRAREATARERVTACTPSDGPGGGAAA", "experiment": "Radioligand binding, human δ-opioid (DOP) membranes, FlashPlate, [3H]-Bremazocine", "settings": "compound at 10 μM, [3H]-Bremazocine", "summary_of_the_method": "(§1)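 Cloned human receptor membranes were coated onto FlashPlate wells and incubated with radioligand and compound (added from a 0.5 mM DMSO daughter plate) for 1 hour at room temperature in the dark. Scintillation counting gave percent inhibition, with DMSO defining total and reference ligand defining non-specific binding.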"}, "Human κ-Opioid (KOP)": {"molecular_target": "T2, Human κ-Opioid (KOP) (Homo sapiens, UniProt P41145)", "T2 construct": "purchased Perkin Elmer Biosignal", "T2 sequence (P41145 whole entry)": "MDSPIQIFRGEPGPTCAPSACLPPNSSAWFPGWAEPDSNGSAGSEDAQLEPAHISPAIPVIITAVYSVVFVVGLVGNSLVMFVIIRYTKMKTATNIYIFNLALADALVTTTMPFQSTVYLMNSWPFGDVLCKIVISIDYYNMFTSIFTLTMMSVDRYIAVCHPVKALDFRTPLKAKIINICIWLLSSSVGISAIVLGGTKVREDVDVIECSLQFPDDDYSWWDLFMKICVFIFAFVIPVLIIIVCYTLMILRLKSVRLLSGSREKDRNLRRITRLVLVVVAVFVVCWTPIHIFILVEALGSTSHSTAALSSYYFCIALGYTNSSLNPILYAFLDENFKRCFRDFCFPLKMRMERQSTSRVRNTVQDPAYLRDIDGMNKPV", "experiment": "Radioligand binding, human κ-opioid (KOP) membranes, filtration, [3H]-Diprenorphine", "settings": "compound at 10 μM, [3H]-Diprenorphine", "summary_of_the_method": "(§2)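 Filtration binding on cloned human receptor membranes (1 Unit/well), [125I]-Substance P for NK1 and [3H]-Diprenorphine for KOP, 1 h at room temperature. Filters PEI-presoaked, washed with cold 50 mM Tris-HCl pH 7.4, counted by scintillation; percent inhibition calculated, reference ligand defining non-specific binding.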"}, "Human Melanocortin (MC3)": {"molecular_target": "T3, Human Melanocortin (MC3) (Homo sapiens, UniProt P41968)", "T3 construct": "purchased Perkin Elmer Biosignal", "T3 sequence (P41968 whole entry)": "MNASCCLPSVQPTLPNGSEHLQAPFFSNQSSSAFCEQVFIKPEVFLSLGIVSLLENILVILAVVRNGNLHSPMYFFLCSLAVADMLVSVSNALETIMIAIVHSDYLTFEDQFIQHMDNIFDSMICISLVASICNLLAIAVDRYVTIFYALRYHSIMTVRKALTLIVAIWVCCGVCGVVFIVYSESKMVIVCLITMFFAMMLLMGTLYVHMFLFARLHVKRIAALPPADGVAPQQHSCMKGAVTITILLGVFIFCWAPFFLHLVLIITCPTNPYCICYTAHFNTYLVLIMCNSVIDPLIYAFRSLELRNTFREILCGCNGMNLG", "experiment": "Radioligand binding, human melanocortin MC3 membranes, FlashPlate, [125I]-NDP-αMSH", "settings": "compound at 10 μM, [125I]-NDP-αMSH", "summary_of_the_method": "as §1"}, "Human Melanocortin (MC4)": {"molecular_target": "T4, Human Melanocortin (MC4) (Homo sapiens, UniProt P32245)", "T4 construct": "purchased Perkin Elmer Biosignal", "T4 sequence (P32245 whole entry)": "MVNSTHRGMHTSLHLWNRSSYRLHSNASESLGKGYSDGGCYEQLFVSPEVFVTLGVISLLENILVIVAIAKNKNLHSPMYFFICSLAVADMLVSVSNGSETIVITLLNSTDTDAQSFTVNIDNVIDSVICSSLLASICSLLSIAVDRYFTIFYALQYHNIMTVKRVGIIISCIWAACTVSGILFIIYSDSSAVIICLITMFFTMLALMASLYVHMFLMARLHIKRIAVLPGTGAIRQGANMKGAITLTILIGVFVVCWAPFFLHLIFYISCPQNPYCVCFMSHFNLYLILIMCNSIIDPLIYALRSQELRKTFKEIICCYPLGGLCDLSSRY", "experiment": "Radioligand binding, human melanocortin MC4 membranes, FlashPlate, [125I]-NDP-αMSH", "settings": "compound at 10 μM, [125I]-NDP-αMSH", "summary_of_the_method": "as §1"}, "Human melanocortin (MC5)": {"molecular_target": "T5, Human melanocortin (MC5) (Homo sapiens, UniProt P33032)", "T5 construct": "purchased Perkin Elmer Biosignal", "T5 sequence (P33032 whole entry)": "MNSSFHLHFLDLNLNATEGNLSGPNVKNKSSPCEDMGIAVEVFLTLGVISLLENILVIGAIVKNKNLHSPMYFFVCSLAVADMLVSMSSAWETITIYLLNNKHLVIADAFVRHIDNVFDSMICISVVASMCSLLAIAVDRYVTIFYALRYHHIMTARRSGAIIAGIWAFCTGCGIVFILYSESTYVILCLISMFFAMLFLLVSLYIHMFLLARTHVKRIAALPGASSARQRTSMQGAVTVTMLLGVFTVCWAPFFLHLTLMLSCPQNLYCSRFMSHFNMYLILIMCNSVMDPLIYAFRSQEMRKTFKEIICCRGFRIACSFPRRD", "experiment": "Radioligand binding, human melanocortin MC5 membranes, FlashPlate, [125I]-NDP-αMSH", "settings": "compound at 10 μM, [125I]-NDP-αMSH", "summary_of_the_method": "as §1"}, "[1]": {"molecular_target": "T6, Human melanin-concentrating hormone (MCH1) (Homo sapiens, UniProt Q99705)", "T6 construct": "purchased Perkin Elmer Biosignal", "T6 sequence (Q99705 whole entry)": "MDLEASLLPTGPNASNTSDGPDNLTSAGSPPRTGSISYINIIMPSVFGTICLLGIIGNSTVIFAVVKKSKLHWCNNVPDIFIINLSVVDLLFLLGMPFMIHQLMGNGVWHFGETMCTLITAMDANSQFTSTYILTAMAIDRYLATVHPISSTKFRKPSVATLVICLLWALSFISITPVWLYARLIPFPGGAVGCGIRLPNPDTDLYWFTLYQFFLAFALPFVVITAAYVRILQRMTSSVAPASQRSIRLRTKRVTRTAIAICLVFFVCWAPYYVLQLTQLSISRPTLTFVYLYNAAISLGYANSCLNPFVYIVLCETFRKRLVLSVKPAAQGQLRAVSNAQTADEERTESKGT", "experiment": "Radioligand binding, human melanin-concentrating hormone MCH1 membranes, FlashPlate, [125I]-S36057", "settings": "compound at 10 μM", "summary_of_the_method": "as §1"}, "Human μ-opioid (MOP)": {"molecular_target": "T7, Human μ-opioid (MOP) (Homo sapiens, UniProt P35372)", "T7 construct": "purchased Perkin Elmer Biosignal", "T7 sequence (P35372 whole entry)": "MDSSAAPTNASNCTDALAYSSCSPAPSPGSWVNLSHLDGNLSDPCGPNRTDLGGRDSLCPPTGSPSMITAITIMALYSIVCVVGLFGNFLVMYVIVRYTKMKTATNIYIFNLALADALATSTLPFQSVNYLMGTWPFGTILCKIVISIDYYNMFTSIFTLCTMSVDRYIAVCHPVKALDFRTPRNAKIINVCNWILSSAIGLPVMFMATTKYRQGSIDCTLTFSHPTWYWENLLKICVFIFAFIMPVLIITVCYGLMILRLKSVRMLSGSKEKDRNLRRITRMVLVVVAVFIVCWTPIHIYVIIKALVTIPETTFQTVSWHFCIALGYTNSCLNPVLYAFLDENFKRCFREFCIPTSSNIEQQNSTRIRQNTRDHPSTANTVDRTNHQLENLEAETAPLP", "experiment": "Radioligand binding, human μ-opioid (MOP) membranes, FlashPlate, [3H]-Naloxone", "settings": "compound at 10 μM, [3H]-Naloxone", "summary_of_the_method": "as §1"}, "Human neurokinin (NK1)": {"molecular_target": "T8, Human neurokinin (NK1) (Homo sapiens, UniProt P25103)", "T8 construct": "purchased Perkin Elmer Biosignal", "T8 sequence (P25103 whole entry)": "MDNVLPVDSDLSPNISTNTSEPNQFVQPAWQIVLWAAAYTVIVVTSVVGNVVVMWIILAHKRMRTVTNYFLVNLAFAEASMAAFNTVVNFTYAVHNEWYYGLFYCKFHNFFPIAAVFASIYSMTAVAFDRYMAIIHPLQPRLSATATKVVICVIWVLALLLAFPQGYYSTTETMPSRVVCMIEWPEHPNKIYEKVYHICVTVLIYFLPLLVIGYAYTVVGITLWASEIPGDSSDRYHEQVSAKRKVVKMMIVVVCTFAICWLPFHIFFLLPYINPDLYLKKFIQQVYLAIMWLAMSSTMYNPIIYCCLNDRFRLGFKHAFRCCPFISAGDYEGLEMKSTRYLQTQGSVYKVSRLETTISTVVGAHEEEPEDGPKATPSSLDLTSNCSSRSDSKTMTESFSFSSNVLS", "experiment": "Radioligand binding, human neurokinin NK1 membranes, filtration, [125I]-Substance P", "settings": "compound at 10 μM, [125I]-Substance P", "summary_of_the_method": "as §2"}, "[2]": {"molecular_target": "T9, Human neuropeptide Y (NPY-Y1) (Homo sapiens, UniProt P25929)", "T9 construct": "purchased Perkin Elmer Biosignal", "T9 sequence (P25929 1-384)": "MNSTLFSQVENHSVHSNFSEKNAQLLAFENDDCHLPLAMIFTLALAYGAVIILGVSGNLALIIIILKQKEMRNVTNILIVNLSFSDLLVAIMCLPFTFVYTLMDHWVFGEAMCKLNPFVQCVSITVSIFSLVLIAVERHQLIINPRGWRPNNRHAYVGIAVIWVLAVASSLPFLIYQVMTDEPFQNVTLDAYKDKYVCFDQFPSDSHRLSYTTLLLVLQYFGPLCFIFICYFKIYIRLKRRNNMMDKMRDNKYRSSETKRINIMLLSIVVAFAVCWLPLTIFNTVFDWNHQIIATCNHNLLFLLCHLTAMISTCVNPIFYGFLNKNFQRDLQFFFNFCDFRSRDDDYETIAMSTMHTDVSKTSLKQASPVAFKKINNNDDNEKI", "experiment": "Radioligand binding, human neuropeptide Y NPY-Y1 membranes, FlashPlate, [125I]-PYY", "settings": "compound at 10 μM, [125I]-PYY", "summary_of_the_method": "as §1"}, "Human opioid (ORL1)": {"molecular_target": "T10, Human opioid (ORL1) (Homo sapiens, UniProt P41146)", "T10 construct": "purchased Perkin Elmer Biosignal", "T10 sequence (P41146 whole entry)": "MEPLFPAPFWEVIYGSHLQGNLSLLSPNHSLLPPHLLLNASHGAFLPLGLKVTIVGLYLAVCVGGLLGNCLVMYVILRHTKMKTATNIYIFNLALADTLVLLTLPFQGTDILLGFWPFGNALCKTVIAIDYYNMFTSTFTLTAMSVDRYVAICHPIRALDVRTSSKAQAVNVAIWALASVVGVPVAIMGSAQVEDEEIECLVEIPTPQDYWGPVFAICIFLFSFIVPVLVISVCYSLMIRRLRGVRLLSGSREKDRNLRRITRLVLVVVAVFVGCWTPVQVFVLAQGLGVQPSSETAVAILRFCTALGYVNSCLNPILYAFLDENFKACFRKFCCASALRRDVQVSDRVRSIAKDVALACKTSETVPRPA", "experiment": "Radioligand binding, human opioid ORL1 membranes, FlashPlate, [125I]-Nociceptin", "settings": "compound at 10 μM, [125I]-Nociceptin", "summary_of_the_method": "as §1"}, "Mouse urotensin (mUR2)": {"molecular_target": "T11, Mouse urotensin (mUR2) (Mus musculus, UniProt Q8VIH9)", "T11 construct": "purchased Perkin Elmer Biosignal", "T11 sequence (Q8VIH9 1-385)": "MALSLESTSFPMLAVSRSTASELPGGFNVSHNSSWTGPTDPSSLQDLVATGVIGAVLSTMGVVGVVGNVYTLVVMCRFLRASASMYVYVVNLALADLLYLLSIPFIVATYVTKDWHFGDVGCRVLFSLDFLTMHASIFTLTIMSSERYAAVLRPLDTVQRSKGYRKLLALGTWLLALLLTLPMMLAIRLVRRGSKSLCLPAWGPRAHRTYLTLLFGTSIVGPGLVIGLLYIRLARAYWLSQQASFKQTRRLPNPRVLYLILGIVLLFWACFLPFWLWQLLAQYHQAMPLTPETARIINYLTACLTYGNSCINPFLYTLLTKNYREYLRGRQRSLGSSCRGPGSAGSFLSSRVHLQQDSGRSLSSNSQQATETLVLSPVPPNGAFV", "experiment": "Radioligand binding, mouse urotensin mUR2 membranes, FlashPlate, [125I]-Urotensin II", "settings": "compound at 10 μM, [125I]-Urotensin II", "summary_of_the_method": "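Cloned mouse urotensin (mUR2) receptor membranes from Perkin Elmer Biosignal were immobilized in FlashPlate microplates using a proprietary coating. Each well got 19.5 μl buffer, then 0.5 μl of DMSO, reference ligand, or compound. Adding 5 μl of [125I]-Urotensin II, diluted to 5× final concentration in binding buffer, started binding. Plates were sealed with TopSeal-A and incubated 1 hour at room temperature in the dark. Wells were counted for 30 seconds each on a TopCount after a 60-second delay, and percentage inhibition was calculated.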"}},
  "data": [
    {"smiles": "COCC1OC(OCc2ccc(Cl)cc2)C(NC(=O)CNC(=N)N)C(OCc2ccccc2)C1O", "note": "(stereo not drawn) [compound 194]", "values": [
      {"measurement": "A1: inhibition of radioligand binding", "setting": "Human δ-opioid (DOP); FlashPlate", "result": "− (“−” indicates less than 50% inhibition at 10 μM)"},
      {"measurement": "A2: inhibition of radioligand binding", "setting": "Human κ-Opioid (KOP); filtration", "result": "− (“−” indicates less than 50% inhibition at 10 μM)"},
      {"measurement": "A3: inhibition of radioligand binding", "setting": "Human Melanocortin (MC3); FlashPlate", "result": "− (“−” indicates less than 50% inhibition at 10 μM)"},
      {"measurement": "A4: inhibition of radioligand binding", "setting": "Human Melanocortin (MC4); FlashPlate", "result": "+ (“+” indicates greater than 50% inhibition at 10 μM)"},
      {"measurement": "A5: inhibition of radioligand binding", "setting": "Human melanocortin (MC5); FlashPlate", "result": "+ (“+” indicates greater than 50% inhibition at 10 μM)"},
      {"measurement": "A6: inhibition of radioligand binding", "setting": "[1]; [125I]-S36057, FlashPlate", "result": "− (“−” indicates less than 50% inhibition at 10 μM)"},
      {"measurement": "A7: inhibition of radioligand binding", "setting": "Human μ-opioid (MOP); FlashPlate", "result": "− (“−” indicates less than 50% inhibition at 10 μM)"},
      {"measurement": "A8: inhibition of radioligand binding", "setting": "Human neurokinin (NK1); filtration", "result": "+ (“+” indicates greater than 50% inhibition at 10 μM)"},
      {"measurement": "A9: inhibition of radioligand binding", "setting": "[2]; FlashPlate", "result": "− (“−” indicates less than 50% inhibition at 10 μM)"},
      {"measurement": "A10: inhibition of radioligand binding", "setting": "Human opioid (ORL1); FlashPlate", "result": "− (“−” indicates less than 50% inhibition at 10 μM)"},
      {"measurement": "A11: inhibition of radioligand binding", "setting": "Mouse urotensin (mUR2); FlashPlate", "result": "− (“−” indicates less than 50% inhibition at 10 μM)"}
    ]},
    {"smiles": "NCCCC(=O)NC1C(OCc2ccc3ccccc3c2)OC(COCc2ccc(Cl)cc2)C(O)C1OCc1ccc(Cl)cc1", "note": "(single isomer, unassigned) [compound 458]", "values": [
      {"measurement": "A1: inhibition of radioligand binding", "setting": "Human δ-opioid (DOP); human DOP membranes", "result": "− (“−” indicates less than 50% inhibition at 10 μM)"},
      {"measurement": "A2: inhibition of radioligand binding", "setting": "Human κ-Opioid (KOP); human KOP membranes", "result": "− (“−” indicates less than 50% inhibition at 10 μM)"},
      {"measurement": "A3: inhibition of radioligand binding", "setting": "Human Melanocortin (MC3); human MC3 membranes", "result": "+ (“+” indicates greater than 50% inhibition at 10 μM)"},
      {"measurement": "A4: inhibition of radioligand binding", "setting": "Human Melanocortin (MC4); human MC4 membranes", "result": "+ (“+” indicates greater than 50% inhibition at 10 μM)"},
      {"measurement": "A5: inhibition of radioligand binding", "setting": "Human melanocortin (MC5); human MC5 membranes", "result": "+ (“+” indicates greater than 50% inhibition at 10 μM)"},
      {"measurement": "A6: inhibition of radioligand binding", "setting": "[1]; [125I]-S36057, human MCH1 membranes, 10 µM", "result": "+ (“+” indicates greater than 50% inhibition at 10 μM)"},
      {"measurement": "A7: inhibition of radioligand binding", "setting": "Human μ-opioid (MOP); human MOP membranes, 10 µM", "result": "+ (“+” indicates greater than 50% inhibition at 10 μM)"},
      {"measurement": "A8: inhibition of radioligand binding", "setting": "Human neurokinin (NK1); human NK1 membranes", "result": "+ (“+” indicates greater than 50% inhibition at 10 μM)"},
      {"measurement": "A9: inhibition of radioligand binding", "setting": "[2]; human NPY-Y1 membranes", "result": "− (“−” indicates less than 50% inhibition at 10 μM)"},
      {"measurement": "A10: inhibition of radioligand binding", "setting": "Human opioid (ORL1); human ORL1 membranes, 10 µM", "result": "+ (“+” indicates greater than 50% inhibition at 10 μM)"},
      {"measurement": "A11: inhibition of radioligand binding", "setting": "Mouse urotensin (mUR2); mouse mUR2 membranes", "result": "− (“−” indicates less than 50% inhibition at 10 μM)"}
    ]},
    {"smiles": "CO[C@H]1[C@H](O)[C@@H](COCc2ccc3ccccc3c2)OC(OCc2cccc(O)c2)[C@@H]1NC(=O)CCCNC(=N)N", "note": "(stereo partly drawn) [compound 168]", "values": [
      {"measurement": "A1 radioligand binding, percentage inhibition", "setting": "Human δ-opioid (DOP)", "result": "− (“−” indicates less than 50% inhibition at 10 μM)"},
      {"measurement": "A2 radioligand binding, percentage inhibition", "setting": "Human κ-Opioid (KOP)", "result": "− (“−” indicates less than 50% inhibition at 10 μM)"},
      {"measurement": "A3 radioligand binding, percentage inhibition", "setting": "Human Melanocortin (MC3)", "result": "− (“−” indicates less than 50% inhibition at 10 μM)"},
      {"measurement": "A4 radioligand binding, percentage inhibition", "setting": "Human Melanocortin (MC4)", "result": "− (“−” indicates less than 50% inhibition at 10 μM)"},
      {"measurement": "A5 radioligand binding, percentage inhibition", "setting": "Human melanocortin (MC5)", "result": "− (“−” indicates less than 50% inhibition at 10 μM)"},
      {"measurement": "A6 radioligand binding, percentage inhibition", "setting": "[1]; [125I]-S36057", "result": "− (“−” indicates less than 50% inhibition at 10 μM)"},
      {"measurement": "A7 radioligand binding, percentage inhibition", "setting": "Human μ-opioid (MOP)", "result": "+ (“+” indicates greater than 50% inhibition at 10 μM)"},
      {"measurement": "A8 radioligand binding, percentage inhibition", "setting": "Human neurokinin (NK1)", "result": "+ (“+” indicates greater than 50% inhibition at 10 μM)"},
      {"measurement": "A9 radioligand binding, percentage inhibition", "setting": "[2]", "result": "− (“−” indicates less than 50% inhibition at 10 μM)"},
      {"measurement": "A10 radioligand binding, percentage inhibition", "setting": "Human opioid (ORL1)", "result": "− (“−” indicates less than 50% inhibition at 10 μM)"},
      {"measurement": "A11 radioligand binding, percentage inhibition", "setting": "Mouse urotensin (mUR2)", "result": "− (“−” indicates less than 50% inhibition at 10 μM)"}
    ]}
  ]
}
